Experimental data published in patent US20250228806A1, “AMPK ACTIVATOR, MOTOR FUNCTION IMPROVING AGENT, MUSCULAR ENDURANCE IMPROVING AGENT, AND MUSCLE ATROPHY PREVENTING AGENT” (MARUZEN PHARMACEUTICALS CO., LTD., priority 2021, published 2025).

Assays:
[1] = test system: MuRF-1 (Gene Symbol: Trim63); test: Gene expression analysis (real-time PCR) in gastrocnemius muscle of muscle atrophy model: MuRF-1; format: in vivo, rat
Procedure: (§1) A gene expression analysis test using real-time PCR was conducted on the gastrocnemius muscle extracted in Testing Example 1 above. The tissue of the gastrocnemius muscle extracted in Testing Example 1 above was fragmented, and total RNA was extracted using RNeasy® Lipid Tissue Mini Kit (available from Qiagen). The obtained total RNA was quantified using a spectrophotometer, and the total RNA was prepared to be 71.4 ng/μL. Using 1000 ng of the total RNA as a template, a reverse transcription reaction was performed using SuperScript® VILO™ CDNA Synthesis Kit (available from Thermo Fisher Scientific). The reaction solution was 20 μL, and the operation was based on the manual attached to the above kit. […] Assay mixes corresponding to the genes to be analyzed were prepared for respective genes using corresponding Taqman® Gene Expression Assays (the assay ID for each gene is described previously). […] After the reaction was completed, the Ct value was calculated using analysis software (Fluidigm Real Time PCR Analysis 4.5.2, available from Fluidigm). The obtained Ct value of each gene was standardized with the Ct value of the internal standard gene GAPDH, and the relative value was calculated when the first group (control group) was set as the standard (1.00).

[2] = test system: GLUT4 (Gene Symbol: Slc2a4); test: Gene expression analysis (real-time PCR) in gastrocnemius muscle of muscle atrophy model: GLUT4; format: in vivo, rat
Procedure: as §1

IL-6 (Gene Symbol: Il6) = test: Gene expression analysis (real-time PCR) in gastrocnemius muscle of muscle atrophy model: IL-6; format: in vivo, rat
Procedure: as §1

Akt = test: Kinase activation analysis in muscle atrophy model: Akt phosphorylation (Luminex); format: in vivo, rat; details: gastrocnemius muscle
Procedure: (§2) For the gastrocnemius muscle extracted in Testing Example 1 above, the phosphorylation state of AMPK and Akt, which are kinases contributing to increase in muscle mass, was evaluated by Luminex measurement and ELISA measurement.
(§3) The tissue of the gastrocnemius muscle extracted in Testing Example 1 above was fragmented, and a tissue extract was collected. The total protein concentration was quantified and used for Luminex measurement and ELISA measurement described below so that the total protein amount was 10 μg per well.
For Akt, MILLIPLEX® MAP Phospho/Total Akt 2-Plex Magnetic Bead Kit 96-well Plate Assay (available from EMD Millipore, catalog number: 48-618MAG) was used to measure the total Akt amount (t-Akt) and the phosphorylated Akt (p-Akt, Ser473) all at once in one reaction system.
(§4) As an internal standard, GAPDH was measured using Total GAPDH Magnetic Bead MAPmate™ (available from EMD Millipore, catalog number: 46-667MAG), and the measured values of the above AMPK and Akt were standardized.

[3] = test system: Atrogin-1 (Gene Symbol: Fbxo32); test: Gene expression analysis (real-time PCR) in gastrocnemius muscle of muscle atrophy model: Atrogin-1; format: in vivo, rat
Procedure: as §1

rat muscle atrophy model = test: Muscle atrophy preventing action test (hindlimb suspension); format: in vivo
Procedure: Using the compound (I) (Sample 1), the muscle atrophy preventing action on a rat muscle atrophy model was tested in the following manner. Eight-week-old male Crlj:WI rats (purchased from Charles River Laboratories Japan, Inc.) were reared in an maintained environment of controlled temperature: 20.0-26.0° C., controlled humidity: 40.0-70.0% RH, light and dark for 12 hours each, and ventilation frequency: 12 times/hour. During the rearing period, solid feed (CRF-1, available from Oriental Yeast Co., Ltd.) was placed in a feeder and consumed ad libitum. However, during the hindlimb suspension rearing period described below, the rats were allowed to consume the feed by scattering it on the floor. For drinking water, tap water was available ad libitum using a water bottle. After a 5-day quarantine period and a 2-day acclimatization period, the rats were grouped with 8 rats per group as listed in Table 1 by random sampling so that the average weight and variance of each group were approximately equal. The rats were put into a state in which the tails of the rats were attached to a rail on the ceiling with a rat tail suspension clip and the hindlimbs of the rats were off the floor (hindlimb suspension), and muscle atrophy was induced in this state by rearing the rats for 14 days after the grouping on the grouping day. During the period of rearing with suspended hindlimbs, the rats were able to move within the rearing cage using their forelimbs, and were able to freely consume water and feed. The compound (I) (Sample 1) was dissolved in water for injection and administered orally by force using a syringe to which a feeding needle was attached. The grouping day was taken as the first day (day 1 of administration), the administration was performed once a day for 14 days, and the day after the 14th day of administration (day 15 of administration) was the last day of the rearing period. On the last day of the hindlimb suspension rearing (day 15 of administration), blood was collected from the abdominal aorta using a heparin-Na treated vacuum blood collection tube and a winged intravenous needle under isoflurane anesthesia. After blood collection, the rats were euthanized by exsanguination from the abdominal aorta, and the right and left gastrocnemius and soleus muscles were extracted. The extracted gastrocnemius and soleus muscles were weighed separately on the right and left sides (the values in Table 2 are the total values).

AMPK = test: Kinase activation analysis in muscle atrophy model: AMPK phosphorylation (ELISA); format: in vivo, rat; details: gastrocnemius muscle
Procedure: as §2, §3
For AMPK, PathScan® Total AMPKα Sandwich ELISA Kit (available from Cell Signaling Technology, catalog number: 7961C) was used to measure the total AMPK (t-AMPK), and PathScan® Phospho-AMPKα (Thr172) ELISA Sandwich Kit (available from Cell Signaling Technology, catalog number: 7959C) was used to measure the Thr172 phosphorylated AMPK (p-AMPK).
as §4

[4] = test system: PGC-1α (Gene Symbol: Ppargc1a); test: Gene expression analysis (real-time PCR) in gastrocnemius muscle of muscle atrophy model: PGC-1α; format: in vivo, rat
Procedure: as §1

[5] = 125 mg/kg orally 14 days, standardized with GAPDH
[6] = administration group 125 mg/kg vs control group

- phosphorylated form of Akt compared to control group (in words) (Akt; administration group 125 mg/kg): tendency to increase
- phosphorylated form of AMPK compared to control group (in words) (AMPK; administration group 125 mg/kg): tendency to increase
Structure (SMILES): COc1cc(CCC(=O)O)ccc1O [compound (I), 3-(4-hydroxy-3-methoxyphenyl) propionic acid]
- MuRF-1 (Trim63) gene expression, relative value (control group = 1.00) [1, 5]: 0.81
- MuRF-1 gene expression compared to control group (in words) ([1]; administration group 125 mg/kg): tendency to decrease
- GLUT4 (Slc2a4) gene expression, relative value (control group = 1.00) [2, 5]: 1.13
- GLUT4 gene expression compared to control group (in words) ([2]; administration group 125 mg/kg): tendency to increase
- IL-6 (Il6) gene expression, relative value (control group = 1.00) (IL-6 (Gene Symbol: Il6); [5]): 1.10
- IL-6 gene expression compared to control group (in words) (IL-6 (Gene Symbol: Il6); administration group 125 mg/kg): tendency to increase
- p-Akt/t-Akt (Akt; 125 mg/kg orally 14 days, Ser473, standardized with GAPDH, control group 100.0): 172.9
- Atrogin-1 (Fbxo32) gene expression, relative value (control group = 1.00) [3, 5]: 0.68
- Atrogin-1 gene expression compared to control group (in words) ([3]; administration group 125 mg/kg): tendency to decrease
- difference in body weight between groups (in words) (rat muscle atrophy model; [6]): no difference was observed
- weight of the gastrocnemius muscle compared to control group (in words) (rat muscle atrophy model; [6]): increased
- weight of the soleus muscle compared to control group (in words) (rat muscle atrophy model; [6]): increased
- muscle mass (in words) (rat muscle atrophy model; administration of 125 mg/kg, rat muscle atrophy model): increased
- Gastrocnemius muscle (total of right and left) weight (rat muscle atrophy model; hindlimb-suspended rats, 125 mg/kg orally once a day for 14 days, day 15, control 2.50): 2.69 g
- Soleus muscle (total of right and left) weight (rat muscle atrophy model; hindlimb-suspended rats, 125 mg/kg orally once a day for 14 days, day 15, control 130.3): 149.1 mg
- Body weight (rat muscle atrophy model; hindlimb-suspended rats, 125 mg/kg orally once a day for 14 days, day 15, control 310): 309 g
- p-AMPK/t-AMPK (AMPK; 125 mg/kg orally 14 days, Thr172, standardized with GAPDH, control group 100.0): 120.8
- PGC-1α (Ppargc1a) gene expression, relative value (control group = 1.00) [4, 5]: 1.28
- PGC-1α gene expression compared to control group (in words) ([4]; administration group 125 mg/kg): tendency to increase
